According to ChEMBL document CHEMBL1828533, “Lipid and sulfur substituted prenylcysteine analogs as human Icmt inhibitors” (Bioorg Med Chem Lett, 2011):
Calls of active or inactive are those of the source. No cut-off for these calls is given here.

Assays:
[1] = target: T1, Protein-S-isoprenylcysteine O-methyltransferase (Homo sapiens, UniProt O60725); experiment: Inhibition of human ICMT at 10 uM by vapor diffusion assay
[2] = target: T1, Protein-S-isoprenylcysteine O-methyltransferase; experiment: Substrate activity at human ICMT by vapor diffusion assay
[3] = target: T1, Protein-S-isoprenylcysteine O-methyltransferase; experiment: Inhibition of human ICMT by vapor diffusion assay
[4] = target: T1, Protein-S-isoprenylcysteine O-methyltransferase; experiment: Inhibition of human ICMT at 25 uM by vapor diffusion assay

T1 sequence (O60725 whole entry, the tested form may be a part): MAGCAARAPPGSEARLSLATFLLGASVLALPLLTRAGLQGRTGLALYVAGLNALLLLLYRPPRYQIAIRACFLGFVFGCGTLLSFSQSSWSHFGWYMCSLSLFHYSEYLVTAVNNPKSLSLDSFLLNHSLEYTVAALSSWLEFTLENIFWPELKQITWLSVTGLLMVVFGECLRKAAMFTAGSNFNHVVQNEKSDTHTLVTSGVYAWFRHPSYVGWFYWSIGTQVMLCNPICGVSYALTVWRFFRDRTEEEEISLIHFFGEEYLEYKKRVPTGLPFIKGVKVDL

CC(=O)N[C@@H](CSC/C=C(/Cc1ccccc1)c1ccccc1)C(=O)O
inhibition [1]: 15.7%

CC(=O)N[C@@H](CSC/C=C(\C)COc1ccc(Cc2ccccc2)cc1)C(=O)O
inhibition [1]: 9.8%

CC(=O)N[C@@H](CSC/C=C(/Cc1ccc2c(c1)Cc1ccccc1-2)c1ccccc1)C(=O)O
inhibition [1]: 25.3%

CC(C)=CCC/C(C)=C/CC/C(C)=C/Cc1cn(C[C@H](NC(=O)CCS(=O)(=O)c2ccccc2)C(=O)O)nn1
inhibition [1]: 22.7% | Activity [2]: inactive

CC(C)=CCC/C(C)=C/CC/C(C)=C/Cc1cn(C[C@H](NC(=O)c2ccccc2-c2ccccc2)C(=O)O)nn1
inhibition [1]: 17% | Activity [2]: inactive

CC(=O)N[C@@H](CSC/C=C(\C)COc1ccc2ccccc2c1)C(=O)O
inhibition [1]: 14.5%

CCCCCc1ccc(CC/C(C)=C/CSC[C@H](NC(C)=O)C(=O)O)cc1
inhibition [1]: 23.1%

CC(=O)N[C@@H](CSC/C=C(/Cc1ccc(-c2ccccc2)cc1)c1ccccc1)C(=O)O
inhibition [1]: 26.6%

CC(C)=CCC/C(C)=C/CC/C(C)=C/Cc1cn(C[C@H](NC(=O)c2ccccc2Oc2ccccc2)C(=O)O)nn1
inhibition [1]: 35.9% | IC50 [3]: 19.4 µM

CCCCCCc1ccc(CC/C(C)=C/CSC[C@H](NC(C)=O)C(=O)O)cc1
inhibition [1]: 18.8%

CC(=O)N[C@@H](CSC/C=C(\C)CCCCOc1ccc(Oc2ccccc2)cc1)C(=O)O
inhibition [1]: 19.4%

CCCc1ccc(CC/C(C)=C/CSC[C@H](NC(C)=O)C(=O)O)cc1
inhibition [1]: 20.7%

COc1ccc([N+](=O)[O-])c(C(=O)N[C@@H](Cn2cc(C/C=C(\C)CC/C=C(\C)CCC=C(C)C)nn2)C(=O)O)c1
inhibition [1]: 10.1% | Activity [2]: inactive

CC(=O)N[C@@H](CSC/C=C(/C)CC/C=C(/C)CCC=C(C)C)C(=O)O
inhibition [4]: 100%

CCCCCCCCc1ccc(CC/C(C)=C/CSC[C@H](NC(C)=O)C(=O)O)cc1
inhibition [1]: 31.1% | IC50 [3]: 34.6 µM

CC(=O)N[C@@H](CSC/C=C(\C)CCCCOc1ccc2ccccc2c1)C(=O)O
inhibition [1]: 22.4%

CC(=O)N[C@@H](Cn1cc(C/C=C(\C)CC/C=C(\C)CCC=C(C)C)nn1)C(=O)O
inhibition [1]: 19.5% | Activity [2]: inactive

CC(=O)N[C@@H](CSC/C=C(\C)COc1ccc(Oc2ccccc2)cc1)C(=O)O
inhibition [1]: 15.5%
